Laboratory results taken from patent publication US20260130864A1, “METHOD AND COMPOSITION FOR ENHANCING EXERCISE PERFORMANCE” (NANJING NUTRABUILDING BIO-TECH CO., LTD., priority 2023, published 2026).

Legend:
Assay type in all cases: in vivo
[1] = treadmill exercise endurance of mice after 4 weeks administration; details: for running distance on treadmill when exhausted (exercise endurance): Swiss male mice, control 948 m
Experimental: (§1) Twenty-four pure Swiss male mice were randomly divided into three groups, with 8 mice in each group, and were given food and water freely under the light and dark cycle of 12:12 hours. The first group was the control group (group 1, no DHZ), the second group was given by gavage 50 mg/kg DHZ (group 2), and the third group was given by gavage 100 mg/kg DHZ (group 3). DHZ solution was prepared with 5% DMSO, 25% PEG-400, 30% propylene glycol and 40% normal saline. All the mice were administered at a dose of 10 mL/kg body weight for 4 weeks. 4 weeks later, these mice were made to run on treadmill voluntarily for exercise analysis, and the running distance of each of mice when exhausted was recorded. All the mice were untrained before exercise. Each group was perfused with paraformaldehyde, and brain tissue was frozen in liquid nitrogen for ELISA, and then dopamine was detected. The cecal feces of mice were collected and the flora was sequenced by 16s. The proportion of different bacteria in feces was obtained, and the DNA in feces was extracted to detect the copy number of Eubacterium rectale and Coprococcus eutactus. The statistical analysis of data was conducted by unpaired t-test, and * indicates significant difference. Compared with the control group, * means p<0.05; ** means p<0.01; *** means p<0.001; **** means p<0.0001.

Coprococcus eutactus = assay: bacterial copy number of Coprococcus eutactus in cecal feces of mice; details: after 4 weeks of DHZ administration
Experimental: as §1, with “p<0.0001. […]” for “p<0.0001.”

Eubacterium rectale = assay: bacterial copy number of Eubacterium rectale in cecal feces of mice; details: after 4 weeks of DHZ administration
Experimental: as §1, with “p<0.0001. […]” for “p<0.0001.”

dopamine = dopamine content in the brain of mice (ELISA); details: 4 weeks; for dopamine content in the brain: control 3,293 ng/g brain
Experimental: as §1

[2] = high dose group (100 mg/kg by gavage)

COc1cc(/C=C/C(C)=O)ccc1O [DHZ, Dehydrozingerone]
running distance on treadmill when exhausted (exercise endurance) ([1]; 50 mg/kg DHZ by gavage (low-dose group)): 1112 m
running distance on treadmill when exhausted (exercise endurance) ([1]; 100 mg/kg DHZ by gavage (high-dose group)): 1367 m
exercise performance higher than that of control group ([1]; high-dose group (100 mg/kg by gavage)): 44%
increase of number (copy number) of Coprococcus eutactus compared with the control group (Coprococcus eutactus): about 3 times
increase of number (copy number) of Eubacterium rectale compared with the control group (Eubacterium rectale): about 3 times
brain dopamine level, times higher than in the control group (dopamine; [2]): 5 times
dopamine content in the brain (dopamine; [2]): 19,988 ng/g brain
dopamine content in the brain (dopamine; low dose group (50 mg/kg by gavage)): 16,285 ng/g brain
